Measurements as given in patent publication US20230285477A1, “MICROBIAL THERAPY” (BEO THERAPEUTICS, priority 2020, published 2023).

Assays:
[1] = system: hyperuricemia mouse model; assay: Hyperuricemia mouse model (high-purine diet + potassium oxonate), serum uric acid; assay type: in vivo, mice; conditions: FIG. 9; normal range 40-65
Source text: 6-10 weeks old mice are randomly divided into groups of 10 mice as follows, using 1.0×10^8-1010 CFU for the test product: • 1) Control group • 2) Allopurinol treatment group • 3) Microbial treatment group 1: Test product is bacterial strain BEO #104 • 4) Microbial treatment group 2: Test product is bacterial strain BEO #110 • 5) Microbial treatment group 4: Test product is bacterial strain BEO #227 • 6) Microbial treatment group 6: Test product is mix of bacterial strains BEO #110+BEO #227
The control group is fed a normal diet (laboratory chow and water ad libitum) and treated with saline (0.5 ml, sodium chloride solution in water) by intragastric administration once a day. The other groups are fed a high-purine diet (laboratory high-purine chow and water ad libitum) and administered an intraperitoneal injection of potassium oxonate 300 mg/kg once a day. The microbial treatment groups are treated daily with approximately 1.0×10^9 CFU/day by intragastric administration. The strains tested all have QPS status and they are produced and formulated under laboratory conditions.
Mice are weighed day −1 for determination of mean weight of animals in the experiment and for composition of groups. […]
Serum is collected once weekly and at the end of experiment. […] Serum is analysed for uric acid concentration.

[2] = system: patients; conditions: patients treated with allopurinol; cited from earlier work
[3] = system: uricase; assay: Bacterial uricase activity (Amplex Red Uric Acid/Uricase Assay Kit); assay type: biochemical; conditions: mean average of all strains of the species; 2% uric acid in medium; fluorescence after 30 min; positive control 20 mM H2O2
Method: Bacterial strains were evaluated for uricase catalytic activity. Prior to the assay, 1/100th volume from the glycerol stocks (example 1) was added to the microtiter plate containing appropriate medium (see overview). Culturing conditions (time, temperature, medium, aerobic or anaerobic) depend on species and can be found in Table 1. Uric acid was dissolved in medium to 2% and the medium was filter sterilized (therefore uric acid was immediately present in the medium upon culturing). Growth of the bacterial strains was assessed by visual examination (the level of viscosity of the medium) before harvesting for fluorescence measurement. […]
The enzyme assay, Amplex® Red Uric Acid/Uricase Assay Kit; Catalog No. A22181; Molecular Probes, was used according to the instructions of the manufacturer. Fluorescence readouts were determined after 30 min using excitation at 530±12.5 nm and fluorescence detection at 590±17.5 nm. […]
The activity of the strains listed in Table 1 was determined, as described in Examples 2 and 3, as percentage of maximal fluorescence from positive controls (Bifidobacterium breve strain ATCC 15701 was used as positive control for the screems according to Example 2 and 20 mM H2O2 solution was used as positive control for the screems according to Example 3). […]

| Compound | serum urate concentration over a 23-hour treatment cycle [1] | patients treated reaching the treatment target [2] | Uricase activity: Inhibitory activity [3] |
| --- | --- | --- | --- |
| Oc1ncnc2[nH]ncc12 [allopurinol] | large fluctuations in serum urate outside the normal range | 30-40% | – |
| Lactobacillus plantarum | – | – | low (low (5-30% of positive control)) |
